Reference: ChEMBL document CHEMBL1201862, “PubChem BioAssay data set” (2004)
Activity calls are given as the source filed them.

Experiments:
[1] = viability of HCT116 lacking mutant beta-catenin – cell-based, human colon tumor, dose response (AID 1045); type: functional;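 note: HCT116 colon tumor cells with beta catenin knocked out; cells exposed to compound for 60 hours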
[2] = Luminescence Cell-Based Dose Retest to Confirm Inhibitors of Cancer Stem Cells. [Related pubchem assays (depositor defined):AID2717, AID2721]; type: functional; conditions: Homo sapiens
[3] = test system: A-375; assay: proliferation inhibition in MITF-low A375 cells – cell-based, cherry-pick samples, set 2, counter-screen for MITF modulator project, dose response (AID 540335); type: functional; conditions: Homo sapiens
[4] = viability of PTEN-deleted HCT116 cells – cell-based, HCT116 PTEN knockout, dose response (AID 1047); type: functional;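 note: HCT116 colon tumor cells with PTEN knocked out; cells exposed to compound for 60 hours before readout; potency for loss of cell viability measured by luminescence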
[5] = molecular target: T1, Microphthalmia-associated transcription factor (Homo sapiens, UniProt O75030); assay: reducers of TRPM1 reporter luminescence, concentration series – cell-based, SK-MEL-5, cherry-picked, set 3, MITF inhibitor project, dose response (AID 493073); type: functional;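 note: SK-MEL-5 melanoma cells with luciferase driven by the MITF target TRPM1 promoter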
T1 sequence (O75030 whole entry): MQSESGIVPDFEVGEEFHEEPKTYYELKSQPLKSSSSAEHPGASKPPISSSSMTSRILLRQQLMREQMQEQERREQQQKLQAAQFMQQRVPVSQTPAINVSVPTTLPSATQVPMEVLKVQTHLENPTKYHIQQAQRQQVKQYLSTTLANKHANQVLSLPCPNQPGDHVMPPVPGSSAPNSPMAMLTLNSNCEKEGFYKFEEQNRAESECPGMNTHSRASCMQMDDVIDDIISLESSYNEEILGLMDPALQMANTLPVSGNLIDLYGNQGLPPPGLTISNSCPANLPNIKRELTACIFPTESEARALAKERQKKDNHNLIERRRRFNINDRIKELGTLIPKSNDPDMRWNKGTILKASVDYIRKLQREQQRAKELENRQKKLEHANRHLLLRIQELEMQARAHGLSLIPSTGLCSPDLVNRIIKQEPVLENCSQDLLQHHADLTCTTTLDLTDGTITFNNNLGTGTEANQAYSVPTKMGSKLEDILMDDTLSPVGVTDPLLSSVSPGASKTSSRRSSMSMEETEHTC

[6] = reduction of Shn3 3'UTR-driven luciferase in osteoblasts – cell-based, Clone20 osteoblasts, firefly luciferase, cherry-picked, dose response (AID 624132); type: functional;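 note: firefly luciferase luminescence from reporter carrying the Shn3 3'UTR in osteoblasts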
[7] = DRD fibroblast viability loss – cell-based, non-viral oncogenic, luminescence, dose response (AID 1934); type: functional; conditions: Homo sapiens
[8] = non-specific 3'UTR reporter inhibition in Clone20-Shn3RL – cell-based, Renilla luciferase, cherry-picked, counter-screen for Shn3 inhibitor project, dose response (AID 624133); type: functional
[9] = molecular target: Phospholipase A2 (Homo sapiens, UniProt P04054); assay: phospholipase A2 activity inhibition – biochemical, set 2, counter-screen for ATG4B inhibitor project, dose response (AID 588586); type: functional
Chain of Phospholipase A2 (P04054 whole entry): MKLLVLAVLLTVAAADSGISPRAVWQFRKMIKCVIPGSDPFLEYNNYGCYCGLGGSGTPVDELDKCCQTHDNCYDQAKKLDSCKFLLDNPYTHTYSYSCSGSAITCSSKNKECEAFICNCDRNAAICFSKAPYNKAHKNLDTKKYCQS

[10] = test system: BJ; assay: BJ-TERT fibroblast viability loss – cell-based, RAS-independent, luminescence, dose response (AID 1933); type: functional; conditions: Homo sapiens
[11] = molecular target: Cysteine protease ATG4B (Homo sapiens, UniProt Q9Y4P1); assay: autophagin-1 cysteine protease inhibition – biochemical, fluorescence, set 2, dose response (AID 588584); type: functional
Chain of Cysteine protease ATG4B (Q9Y4P1 whole entry): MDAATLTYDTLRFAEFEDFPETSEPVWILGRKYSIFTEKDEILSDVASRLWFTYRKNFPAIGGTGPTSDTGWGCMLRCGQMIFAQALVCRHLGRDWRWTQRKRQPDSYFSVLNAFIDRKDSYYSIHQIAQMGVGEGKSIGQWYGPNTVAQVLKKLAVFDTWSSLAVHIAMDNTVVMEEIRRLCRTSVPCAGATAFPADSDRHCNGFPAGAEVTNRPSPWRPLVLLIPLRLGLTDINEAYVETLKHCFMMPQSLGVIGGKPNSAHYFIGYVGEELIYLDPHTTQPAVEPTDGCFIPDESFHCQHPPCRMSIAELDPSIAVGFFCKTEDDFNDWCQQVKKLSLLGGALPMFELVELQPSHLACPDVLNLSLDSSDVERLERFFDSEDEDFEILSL

[12] = test system: BJ; assay: BJ-TERT-LT-ST fibroblast viability loss – cell-based, RAS-independent, luminescence, dose response (AID 1935); type: functional; conditions: Homo sapiens;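 note: BJ fibroblasts immortalized with TERT plus LT and ST oncogenes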
[13] = test system: BJ; assay: cells; type: functional, cell-based; conditions: Homo sapiens
[14] = molecular target: T2, Sentrin-specific protease 7 (Homo sapiens, UniProt Q9BQF6); assay: inhibition of human SENP7 cleavage activity – biochemical, luminescence, set 2, SAR follow-up (AID 588600); type: functional
T2 sequence (Q9BQF6 whole entry): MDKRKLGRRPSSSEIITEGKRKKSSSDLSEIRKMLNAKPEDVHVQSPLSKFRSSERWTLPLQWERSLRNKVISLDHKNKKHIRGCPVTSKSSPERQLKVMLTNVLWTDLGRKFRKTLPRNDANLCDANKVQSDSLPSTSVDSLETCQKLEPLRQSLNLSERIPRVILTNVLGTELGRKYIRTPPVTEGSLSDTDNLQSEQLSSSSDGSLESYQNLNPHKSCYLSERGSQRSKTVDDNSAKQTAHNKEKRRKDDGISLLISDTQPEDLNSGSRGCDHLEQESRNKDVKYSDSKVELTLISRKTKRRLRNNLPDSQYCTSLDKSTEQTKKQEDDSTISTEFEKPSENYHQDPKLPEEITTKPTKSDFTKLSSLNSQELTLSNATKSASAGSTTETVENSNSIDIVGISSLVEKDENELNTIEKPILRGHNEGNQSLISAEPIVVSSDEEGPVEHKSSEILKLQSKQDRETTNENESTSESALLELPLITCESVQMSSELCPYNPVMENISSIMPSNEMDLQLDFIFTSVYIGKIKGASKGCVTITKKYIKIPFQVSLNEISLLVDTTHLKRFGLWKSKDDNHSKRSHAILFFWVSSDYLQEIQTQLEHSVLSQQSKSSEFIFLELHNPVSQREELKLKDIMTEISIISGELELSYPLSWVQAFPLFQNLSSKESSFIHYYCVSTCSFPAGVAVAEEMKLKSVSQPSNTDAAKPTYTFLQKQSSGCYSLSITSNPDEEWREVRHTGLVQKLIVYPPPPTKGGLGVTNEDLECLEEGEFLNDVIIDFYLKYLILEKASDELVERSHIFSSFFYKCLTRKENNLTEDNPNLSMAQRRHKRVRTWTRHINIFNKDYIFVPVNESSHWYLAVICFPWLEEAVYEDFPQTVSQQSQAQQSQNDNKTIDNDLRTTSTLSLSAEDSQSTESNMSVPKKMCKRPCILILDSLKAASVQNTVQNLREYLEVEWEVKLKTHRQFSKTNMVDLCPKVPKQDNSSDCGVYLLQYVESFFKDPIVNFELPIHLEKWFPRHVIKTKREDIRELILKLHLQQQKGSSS

[15] = molecular target: T3, Sentrin-specific protease 8 (Homo sapiens, UniProt Q96LD8); assay: inhibition of sentrin protease 8 – biochemical, luminescence, set 2, SAR follow-up (AID 588601); type: functional
T3 sequence (Q96LD8 whole entry): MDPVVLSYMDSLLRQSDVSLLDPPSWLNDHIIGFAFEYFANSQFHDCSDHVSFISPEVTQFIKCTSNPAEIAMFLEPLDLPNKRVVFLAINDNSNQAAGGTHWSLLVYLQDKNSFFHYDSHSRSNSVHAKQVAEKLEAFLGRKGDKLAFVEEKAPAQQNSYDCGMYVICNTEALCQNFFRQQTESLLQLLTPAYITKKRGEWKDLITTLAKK

[16] = molecular target: T4, Caspase-3 (Homo sapiens, UniProt P42574); assay: inhibition of recombinant caspase-3 activity – biochemical, luminescence, set 2, selectivity assay for SENP protease inhibitor project, SAR follow-up (AID 588599); type: functional
T4 sequence (P42574 whole entry): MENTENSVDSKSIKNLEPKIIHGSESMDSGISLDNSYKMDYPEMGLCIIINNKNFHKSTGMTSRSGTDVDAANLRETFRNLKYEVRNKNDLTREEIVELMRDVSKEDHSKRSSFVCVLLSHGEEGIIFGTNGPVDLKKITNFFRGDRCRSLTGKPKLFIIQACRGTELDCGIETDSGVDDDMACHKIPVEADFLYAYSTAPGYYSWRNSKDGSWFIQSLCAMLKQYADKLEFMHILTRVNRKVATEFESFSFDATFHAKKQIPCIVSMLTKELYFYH

[17] = molecular target: T5, Sentrin-specific protease 6 (Homo sapiens, UniProt Q9GZR1); assay: inhibition of human SENP6 catalytic domain – biochemical, luminescence, set 2, SAR follow-up (AID 588598); type: functional
T5 sequence (Q9GZR1 whole entry): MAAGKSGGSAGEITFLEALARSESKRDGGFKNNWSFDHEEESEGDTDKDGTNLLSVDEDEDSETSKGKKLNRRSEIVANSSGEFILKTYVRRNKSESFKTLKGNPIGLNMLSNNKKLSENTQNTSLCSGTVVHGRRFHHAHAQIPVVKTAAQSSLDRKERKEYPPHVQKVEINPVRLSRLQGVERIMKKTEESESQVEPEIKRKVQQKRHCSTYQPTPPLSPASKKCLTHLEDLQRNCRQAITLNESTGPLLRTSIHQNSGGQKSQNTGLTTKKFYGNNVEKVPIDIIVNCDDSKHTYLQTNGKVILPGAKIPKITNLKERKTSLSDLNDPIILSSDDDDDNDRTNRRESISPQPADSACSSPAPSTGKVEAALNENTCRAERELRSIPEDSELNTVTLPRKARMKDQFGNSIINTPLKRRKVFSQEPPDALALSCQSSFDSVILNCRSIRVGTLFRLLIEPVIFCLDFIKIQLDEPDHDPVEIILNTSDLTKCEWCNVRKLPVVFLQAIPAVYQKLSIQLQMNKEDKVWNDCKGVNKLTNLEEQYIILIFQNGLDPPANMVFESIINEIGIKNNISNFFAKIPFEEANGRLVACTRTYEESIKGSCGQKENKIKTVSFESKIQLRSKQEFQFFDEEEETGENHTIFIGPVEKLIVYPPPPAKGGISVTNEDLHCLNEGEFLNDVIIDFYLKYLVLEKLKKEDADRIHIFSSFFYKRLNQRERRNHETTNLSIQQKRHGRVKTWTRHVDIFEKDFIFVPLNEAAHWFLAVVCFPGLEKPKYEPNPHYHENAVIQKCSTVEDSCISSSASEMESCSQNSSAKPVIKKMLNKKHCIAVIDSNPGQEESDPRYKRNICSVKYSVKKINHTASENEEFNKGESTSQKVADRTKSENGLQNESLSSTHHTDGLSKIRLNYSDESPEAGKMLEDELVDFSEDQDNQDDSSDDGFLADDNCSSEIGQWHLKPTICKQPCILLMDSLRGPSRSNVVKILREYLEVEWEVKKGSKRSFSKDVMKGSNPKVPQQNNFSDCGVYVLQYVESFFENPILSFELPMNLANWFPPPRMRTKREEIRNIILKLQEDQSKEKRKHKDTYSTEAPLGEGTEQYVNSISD

[18] = molecular target: Melanocortin receptor 4 (Homo sapiens, UniProt P32245); assay: inhibitors of MC4R cAMP signaling – cell-based, TR-FRET, biased antagonists, dose response (AID 602298); type: functional;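 note: antagonist potency against agonist-stimulated cAMP production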
Chain of Melanocortin receptor 4 (P32245 whole entry): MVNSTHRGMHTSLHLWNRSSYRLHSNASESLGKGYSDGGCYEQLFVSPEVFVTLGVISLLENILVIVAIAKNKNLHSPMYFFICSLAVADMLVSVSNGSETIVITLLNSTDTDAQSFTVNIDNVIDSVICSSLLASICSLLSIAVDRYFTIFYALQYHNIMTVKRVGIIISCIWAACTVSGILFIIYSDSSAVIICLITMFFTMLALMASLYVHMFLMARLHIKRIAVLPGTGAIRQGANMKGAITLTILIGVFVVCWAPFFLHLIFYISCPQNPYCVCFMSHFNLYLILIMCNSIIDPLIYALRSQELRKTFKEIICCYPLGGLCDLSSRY

[19] = molecular target: 5-hydroxytryptamine receptor 5A (Homo sapiens, UniProt P47898); assay: Counterscreen for agonists of OPRM1-OPRD1 heterodimerization: luminescence-based cell-based high throughput dose response assay to identify agonists of 5-hydroxytryptamine (serotonin) 5A receptor (HTR5A). [Related pubchem assays (depositor defined):AID504326, AID504355, AID504692, AID504904, AID504905]; type: functional
Chain of 5-hydroxytryptamine receptor 5A (P47898 whole entry): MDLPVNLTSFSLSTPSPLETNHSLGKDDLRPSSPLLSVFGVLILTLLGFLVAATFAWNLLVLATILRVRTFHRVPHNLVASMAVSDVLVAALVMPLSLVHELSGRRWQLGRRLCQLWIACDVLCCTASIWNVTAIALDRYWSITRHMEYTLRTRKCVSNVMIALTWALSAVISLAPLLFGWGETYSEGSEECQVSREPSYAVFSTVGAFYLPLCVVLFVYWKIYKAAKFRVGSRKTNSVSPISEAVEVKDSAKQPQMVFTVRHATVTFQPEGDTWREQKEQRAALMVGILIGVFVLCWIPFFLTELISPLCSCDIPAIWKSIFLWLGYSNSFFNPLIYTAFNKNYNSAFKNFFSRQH

[20] = molecular target: Neurotensin receptor type 1 (Homo sapiens, UniProt P30989); type: functional;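 note: Image-based confirmatory dose-response assay measuring agonist activity at NTR1; NTR1-expressing U2OS osteosarcoma cells imaged for beta-arrestin GFP spot formation; agonist potency where compounds increase beta-arrestin recruitment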
Chain of Neurotensin receptor type 1 (P30989 whole entry): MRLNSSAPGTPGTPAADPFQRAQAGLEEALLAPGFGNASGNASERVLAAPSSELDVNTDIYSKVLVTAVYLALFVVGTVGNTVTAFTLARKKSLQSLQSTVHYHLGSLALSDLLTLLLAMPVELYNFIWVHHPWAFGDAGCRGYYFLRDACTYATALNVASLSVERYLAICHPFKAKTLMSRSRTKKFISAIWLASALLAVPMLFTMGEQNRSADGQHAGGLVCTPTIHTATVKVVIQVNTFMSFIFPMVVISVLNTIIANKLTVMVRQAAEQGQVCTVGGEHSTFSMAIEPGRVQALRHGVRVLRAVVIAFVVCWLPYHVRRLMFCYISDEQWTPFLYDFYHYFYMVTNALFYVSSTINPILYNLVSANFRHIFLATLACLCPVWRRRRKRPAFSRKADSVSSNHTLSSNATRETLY

[21] = molecular target: Delta-type opioid receptor (Homo sapiens, UniProt P41143); assay: Counterscreen for agonists of heterodimerization of the mu 1 (OPRM1) and delta 1 (OPRD1) opioid receptors: Luminescence-based cell-based high throughput dose response assay to identify agonists of OPRD1 homodimerization. [Related pubchem assays (depositor defined):AID504326, AID504355, AID504692, AID504904, AID504905]; type: functional
Chain of Delta-type opioid receptor (P41143 whole entry): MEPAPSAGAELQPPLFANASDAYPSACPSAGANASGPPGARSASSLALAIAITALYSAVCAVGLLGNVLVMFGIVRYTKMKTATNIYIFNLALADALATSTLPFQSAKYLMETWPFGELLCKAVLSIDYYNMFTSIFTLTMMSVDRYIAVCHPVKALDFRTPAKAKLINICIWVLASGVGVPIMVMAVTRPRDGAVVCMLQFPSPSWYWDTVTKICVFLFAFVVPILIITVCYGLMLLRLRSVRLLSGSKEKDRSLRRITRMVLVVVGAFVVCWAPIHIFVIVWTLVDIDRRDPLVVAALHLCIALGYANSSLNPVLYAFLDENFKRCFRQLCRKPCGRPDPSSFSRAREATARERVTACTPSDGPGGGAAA

[22] = test system: A-375; assay: MITF: Counter assay: A375 proliferation Measured in Cell-Based System Using Plate Reader - 2084-03_Inhibitor_Dose_DryPowder_Activity. [Related pubchem assays (depositor defined):AID488944]; type: functional; conditions: Homo sapiens
[23] = test system: Streptococcus sp. 'group A'; assay: Streptococcus pyogenes SK(-)GAS viability under kanamycin – luminescence, BacTiterGlo, confirmation, counter-screen for streptokinase expression inhibitor project, dose response (AID 1900); type: functional, organism-based
[24] = molecular target: Mu-type opioid receptor (Homo sapiens, UniProt P35372); assay: Counterscreen for agonists of heterodimerization of the mu 1 (OPRM1) and delta 1 (OPRD1) opioid receptors: Luminescence-based cell-based high throughput dose response assay to identify agonists of OPRM1 homodimerization.; type: functional;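 note: U2OS cells expressing OPRM1 and beta-arrestin as split beta-galactosidase partners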
Chain of Mu-type opioid receptor (P35372 whole entry): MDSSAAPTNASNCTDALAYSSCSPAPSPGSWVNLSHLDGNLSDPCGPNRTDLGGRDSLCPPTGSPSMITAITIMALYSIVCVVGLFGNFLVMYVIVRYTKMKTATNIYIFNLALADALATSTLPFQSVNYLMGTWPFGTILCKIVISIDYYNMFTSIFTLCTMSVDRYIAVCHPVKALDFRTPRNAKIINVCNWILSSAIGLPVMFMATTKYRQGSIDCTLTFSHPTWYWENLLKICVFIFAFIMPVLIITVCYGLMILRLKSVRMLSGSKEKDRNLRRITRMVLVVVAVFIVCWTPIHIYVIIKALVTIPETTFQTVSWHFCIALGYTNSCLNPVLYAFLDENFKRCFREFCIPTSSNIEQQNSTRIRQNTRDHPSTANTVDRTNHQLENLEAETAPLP

[25] = molecular target: T6, Streptokinase A (Streptococcus pyogenes serotype M1, UniProt P10520); assay: viability-normalized secreted streptokinase activity reduction – plasminogen activation absorbance, OD405, dose response (AID 1914); type: functional, Streptococcus pyogenes M1 GAS;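 note: secreted streptokinase activity via plasminogen activation per viability signal from cell pellet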
T6 sequence (P10520 whole entry): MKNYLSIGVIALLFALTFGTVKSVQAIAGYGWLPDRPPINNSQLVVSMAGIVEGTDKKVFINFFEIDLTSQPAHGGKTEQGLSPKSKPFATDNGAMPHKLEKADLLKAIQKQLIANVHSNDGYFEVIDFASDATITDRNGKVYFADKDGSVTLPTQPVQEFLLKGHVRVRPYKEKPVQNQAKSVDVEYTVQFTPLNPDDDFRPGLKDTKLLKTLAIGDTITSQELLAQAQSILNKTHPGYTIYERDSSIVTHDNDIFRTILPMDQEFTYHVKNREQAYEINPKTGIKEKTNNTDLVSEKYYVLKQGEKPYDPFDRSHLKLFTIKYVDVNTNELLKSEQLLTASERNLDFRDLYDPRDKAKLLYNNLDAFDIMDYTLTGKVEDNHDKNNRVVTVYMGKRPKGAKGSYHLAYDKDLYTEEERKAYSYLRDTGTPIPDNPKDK

[26] = test system: Streptococcus; assay: GAS UMAA2166 growth inhibition – luminescence, BacTiterGlo, counter-screen for streptokinase expression inhibitor project, dose response (AID 1915); type: functional, organism-based;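 note: potency for reduction of bacterial viability or growth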
[27] = cAMP pathway inhibition in counterscreen cell line – TR-FRET cAMP detection, counter-screen for MC4R biased antagonist project, dose response (AID 602305); type: functional, cell-based;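 note: U2OS cells stimulated with forskolin near its EC80 as the cAMP inducer; potency is for inhibition of forskolin-stimulated cAMP signaling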

Cc1ccc(NC2=C(Cl)C(=O)c3ccccc3C2=O)cc1
EC50 [1]: 4.88 µM (active)
AC50 [2]: 1.17 µM (active)
AC50 [3]: 12.6 µM (active)
EC50 [4]: 10.7 µM (active)
AC50 [5]: 5.25 µM (active)

O=C(OCCN1C(=O)c2cccc3c(N4CCOCC4)ccc(c23)C1=O)c1ccccc1Cl
AC50 [6]: 3.06 µM (active)
EC50 [7]: 18.8 µM (active)
AC50 [8]: 6.25 µM (active)
IC50 [9]: > 80 µM (inactive)
EC50 [10]: 17.2 µM (active)
IC50 [11]: > 80 µM (inactive)
EC50 [12]: > 150 µM (inconclusive)
EC50 [13]: 21.5 µM (active)

Cc1[nH]c2ccccc2c1C(=O)C(=O)NCCCN1CCOCC1
IC50 [14]: > 99 µM (inactive)
IC50 [15]: > 99 µM (inactive)
IC50 [16]: > 99 µM (inactive)
IC50 [17]: > 99 µM (inactive)

CN(C)S(=O)(=O)c1ccc(-c2csc(N/N=C/c3ccc(O)cc3)n2)cc1
IC50 [18]: > 64.6 µM (inactive)
EC50 [19]: > 92.5 µM (inactive)
EC50 [20]: 6.62 µM (active)
EC50 [21]: > 92.5 µM (inactive)
AC50 [22]: 30.8 µM (active)
EC50 [23]: 8.68 µM (active)
EC50 [24]: > 92.5 µM (inactive)
AC50 [5]: 4.6 µM (active)
EC50 [25]: > 150 µM (not active)
EC50 [26]: 13.3 µM (active)
IC50 [27]: > 64.6 µM (inactive)
